Laboratory results from US20060148714A1, “Therapeutic peptide-based constructs” (priority 1999, published 2006).
In brackets after ≈: the same amount, converted by molar mass. Where a SMILES comes first, the peptide text is derived from it. [ ]: non-standard residue; d: D form. d1Nal = N[C@H](Cc1cccc2ccccc12)C(=O)O

Columns and labels:
[1] = system: human umbilical vein endothelial cells (HUVEC); format: cell-based; details: for IC50: 72 h
Experimental: Briefly, human umbilical vein endothelial cells (HUVEC) were cultured in EGM-2 medium (Clonetics Corp., San Diego, Calif.), harvested and plated onto a 96-well culture plate. After 24 hours of quiescence, the cells were co-cultured with various peptide-based constricts in the presence of growth factors for 72 hours to test their activity. Cell proliferation was quantitated by tritiated thymidine incorporation into DNA and was expressed in counts per minute (cpm).
Details of the experimental procedures were as follows: HUVEC cells were cultured in EGM-2 media from Clonetics Corp., a subsidiary of BioWhittaker, Inc., San Diego, Calif. [EGM-2 is Endothelial Cell Basal Medium-2 (EMB-2) supplemented with growth factors (hFGF-B, VEGF, IGF-1, hEGF) ascorbic acid, heparin, GA-1000 and 2% FBS), in T75 flasks until confluent (˜4-7 days). Cells were harvested by trypsinizing the cells using 0.025% trypsin/EDTA for 5 minutes. To stop the reaction, 2-5% FBS was added. The cells were centrifuged and washed 3 times using Hank's Balanced Salt Solution (HBSS) or Dulbecco's Phosphate Buffered Saline D-PBS. The pellet was then resuspended in EBM-2 supplemented with 0.1% FBS and GA-1000 was used. The cells were counted and a cell suspension was prepared at 2×10^5/mL in EBM-2 with 0.1% FBS; cells were dispensed into a 96-well flat bottomed culture plate at 0.1 mL/well (total: ˜20,000 cells/well in 0.1% FBS-EBM-2). Incubation continued at 37° C. in 5% CO2 for 20-24 hours. The next day peptide-based constructs were prepared for testing in a 96 well plate. The supernatant was aspirated from the cell-well, replaced with EBM-2 or the testing reagent at 20 μL/well. Then, 180 μL/well of 1.12% FBS-GFS were added to make a final concentration of 1% FBS-GFS in EBM-2. This aspiration and addition was done well-by-well. ^3H-thymidine (100 μCi/mL) was added at 10 μL/well (1 μCi/well, final). Incubation continued at 37° C., 5% CO2 for 72 hours. To harvest the plate, the supernatant was aspirated off from the cell-well and then 75 μL-100 μL/well of 0.025% trypsin-EDTA was added. After incubation for 8-10 minutes at room temperature in the hood, the cells were checked and 100 μL/well of 2-5% FBS-PBS was added to stop the reaction. The plate was then harvested, dried and counted using an Inotech cell harvester (Inotech Biosystems, INB-384, Sample Processing and Filter Counting System, Lansing, Mich.).

[2] = system: bFGF-induced angiogenesis; assay: In vivo Matrigel angiogenesis assay (hemoglobin content of excised gel); details: 10 μg peptide construct per gel; hemoglobin of gel excised ten days after s.c. injection; C57BL/6J mice
Experimental: For these experiments, peptide-based constructs according to the invention were assayed for their ability to inhibit heparin-induced angiogenesis in vivo in mice. Basement membrane matrix (Matrigel®, Becton Dickinson Labware, Mountain View, Calif.) was thawed and maintained at 4° C. and angiogenic factors were added to the gel in the liquid state generally as described in Passaniti et al., 1992, Lab. Invest. 67: 519-528. Heparin sodium (Sigma, St. Louis, Mo.) was dissolved in sterile PBS to various concentrations ranging from 1,250-10,000 U/mL, and used in these experiments at 8,000 U/mL. Human recombinant basic fibroblast growth factor (bFGF; Sigma) was reconstituted into 1. % BSA in PBS to 25 μg/mL. A volume of 2.5 μL dissolved heparin solution and 4.0 μL recombinant bFGF were added to 0.5 mL Matrigel® mixture per mouse injection. Peptide-based constructs were added to this Matrigel® mixture at varying concentrations ranging from 0.5 to 50 μg/mL (final concentration) in 10 μL/0.5 mL Matrigel® aliquot per experimental animal. Ten μL sterile PBS was substituted for peptide-based constructs in Matrigel® aliquots injected into control animals.
Female C57BL/6J mice (Jackson Laboratory, Bar Barbor, Me.) at 6-8 weeks of age (maintained under NIH guidelines) were injected subcutaneously down the dorsal midline with 0.5 mL aliquots of Matrigel® prepared as described above. Ten days after injection, the Matrigel® gels were excised and placed in Drabkin's reagent (Sigma). Total protein and hemoglobin content can be determined for the gels stored in Drabkin's reagent after mechanical homogenization of the gels. Hemoglobin concentration was measured using Sigma Procedure #525 and reagents supplied by Sigma (St. Louis, Mo.) to be used with this procedure. If desired, total protein levels are determined using a microplate assay that is commercially embodied in a kit (DC Protein Assay, Bio-Rad, Richmond, Calif.).
Gels to be used for histological staining are formalin-fixed immediately after excision from the animals rather than being placed in Drabkin's reagent. Formalin-fixed gels are embedded in Tissue-Tek O.C.T. compound (Miles, Inc., Elkhart, Ind.) for frozen sectioning. Slides of frozen sections are stained with hematoxylin and eosin (as described by Humason, 1979, Animal Tissue Techniques, 4th Ed. W.H. Feeman & Co., San Francisco, Calif., Ch. 9, pp. 111-131). The effect of peptides are detected by microscopic examination of frozen stained sections for inhibition of angiogenesis relative to Matrigel® gel slices prepared without added peptides. The extent of angiogenesis inhibition is quantitated using the normalized amounts of hemoglobin found in BPI peptide-containing gel slices.
Data are presented as the means of triplicate determinations of hemoglobin concentrations from the excised gel (ISEM) with ten mice per group.

[3] = system: Factor Xa neutralization by ATIII/heparin complexes; assay: Chromostrate heparin anti-Factor Xa assay (heparin neutralization); format: biochemical; details: absorbance at 405 nm
Experimental: A Chromostrate™ assay was used to determine the effect of peptide-based constructs, including derivatized constructs, and the effect protamine sulfate (as a positive control) on Factor Xa neutralization by ATIII/heparin complexes. The assay was conducted using a Chromostrate™ heparin anti-Factor Xa assay kit (Organon Teknika Corp., Durham, N.C.). Heparin concentration was varied so that a heparin standard curve was generated. The assay measured the potentiating effect of heparin on anti-Xa activity in vitro. Solution containing heparin is incubated in the presence of ATIII with an excess of Factor Xa, forming an ATIII-Heparin-Xa complex. The remaining Xa catalyzes the release of p-nitroaniline (pNA) from the chromogenic substrate. The release of p-nitroaniline is measured at 405 nm. The absorbance obtained in inversely porportional to the concentration of heparin in the sample.
Reagents for the assay are prepared as follows. Heparin, peptide-based constructs and protamine sulfate stocks are made in saline. Stock solutions are approximately 1 mg/mL=1 μg/μL. Factor Xa reagent and substrate reagent are reconstituted with 2.0 mL purified water. Antithrombin III (ATIII) reagent is reconstituted with 1.0 mL purified water. The assay is performed in 96 well microtiter plates. Assay components are added to the microtiter wells as follows: 12.5 μl of heparin (from 0 to 10 U/mL), 25 μl of construct or protamine sulfate, 12.5 μL of ATIII (0.5 PEU/mL), 25 μL of bovine Factor Xa (14 nKat/mL), 25 μL substrate (3 μmoles/mL). The reaction is allowed to proceed for 20 minutes and then 25 μL of 0.1 M acetic acid is added. The color reaction is quantitated on a microplate reader at 405 nm. Constructs that neutralize heparin show an increase in the absorbance at 405 nm. Protamine is used as a positive control and its activity is designated as 100%. The percent (%) heparin neutralization for each peptide construct is calculated relative to the neutralization by protamine (100%), and shown in Table IV.

[4] = system: LPS; assay: RAW cell assay of LPS neutralization; format: cell-based
[5] = system: E. coli (J5 and 0111 B4), Staphylococcus aureus and Candida albicans; assay: Broth and/or radial diffusion antimicrobial assays; format: cell-based
Excerpt: Assays useful for testing a variety of biological activities of BPI protein products, including BPI-derived peptides, are described in co-owned U.S. Pat. Nos. 5,733,872; 5,763,567; 5,652,332; and 5,856,438 and corresponding PCT Publication Nos. WO 94/20532 (PCT/US94/02465) and WO 95/19372 (PCT/US94/10427) and U.S. Pat. No. 5,858,974 and corresponding PCT Publications Nos. WO 96/08509 (PCT/US95/09262) and WO 97/04008 (PCT/US96/03845), incorporated herein by reference. These activities include antimicrobial (including antibacterial and antifungal), LPS binding, LPS neutralization and additional assays of heparin binding as well as heparin neutralization.

SMILES | IC50 [1] [µg/mL] | % Inhibition [2] [%] | Assay A: percent heparin neutralization relative to protamine (100%) [3] [%] | Assay B: percent heparin neutralization relative to protamine (100%) [3] [%] | LPS neutralization activity [4] | antimicrobial activity [5] | IC50 values, additional assays ([1]; HUVEC proliferation, purified constructs, said to be comparable to Table II (μg/mL))
CC[C@@H](C)[C@@H](NC(=O)[C@@H](CCCCN)NC(=O)[C@H](NC(=O)[C@@H](CO)NC(=O)CNC(=O)[C@@H](CCCCN)NC(=O)[C@@H](Cc1cccc2ccccc12)NC(=O)[C@@H](CCCCN)NC(=O)[C@@H](C)NC(=O)[C@@H](CCC(N)=O)NC(=O)[C@@H](Cc1cccc2ccccc12)NC(=O)[C@@H](CCCNC(=N)N)NC(=O)[C@@H](Cc1ccccc1)NC(=O)[C@@H](CC(C)C)NC(=O)[C@H](N)CCCCN)[C@H](C)CC)C(N)=O [XMP.394, k-l-f-r-(naph-a)-q-a-k-(naph-a)-k-g-s-i-k-i] (H-[dK][dL][dF][dR][d1Nal][dQ][dA][dK][d1Nal][dK]G[dS][dI][dK][dI]-NH2; N-terminus assumed) | 4.3 ± 0.5 (≈ 2.25 µM) | 54.6 | 143 | 133 | – | – | –
CC(C)C[C@@H](NC(=O)[C@H](N)CCCCN)C(=O)N[C@H](Cc1ccccc1)C(=O)N[C@H](CCCNC(=N)N)C(=O)N[C@H](Cc1cccc2ccccc12)C(=O)N[C@H](CCC(N)=O)C(=O)N[C@H](C)C(=O)N[C@H](CCCCN)C(=O)N[C@H](Cc1cccc2ccccc12)C(=O)N[C@H](CCCCN)C(=O)NCC(=O)N[C@H](CO)C(N)=O [XMP.626, k-l-f-r-(naph-a)-q-a-k-(naph-a)-k-g-s] (H-[dK][dL][dF][dR][d1Nal][dQ][dA][dK][d1Nal][dK]G[dS]-NH2) | – | – | 99 | 80 | showed activity | – | –
CC(C)C[C@@H](NC(=O)[C@H](N)CCCCN)C(=O)N[C@H](Cc1ccccc1)C(=O)N[C@H](CCCNC(=N)N)C(=O)N[C@H](Cc1cccc2ccccc12)C(=O)N[C@H](CCC(N)=O)C(=O)N[C@H](C)C(=O)N[C@H](CCCCN)C(=O)N[C@H](Cc1cccc2ccccc12)C(=O)N[C@H](CCCCN)C(=O)NCC(N)=O [XMP.627, k-l-f-r-(naph-a)-q-a-k-(naph-a)-k-g] (H-[dK][dL][dF][dR][d1Nal][dQ][dA][dK][d1Nal][dK]G-NH2; N-terminus assumed) | 5.8 ± 0.7 (≈ 3.95 µM) | 77.6 | 98 | 62 | – | highest antimicrobial activities | –
CC(C)C[C@@H](NC(=O)[C@H](N)CCCCN)C(=O)N[C@H](Cc1ccccc1)C(=O)N[C@H](CCCNC(=N)N)C(=O)N[C@H](Cc1cccc2ccccc12)C(=O)N[C@H](CCC(N)=O)C(=O)N[C@H](C)C(=O)N[C@H](CCCCN)C(=O)N[C@H](Cc1cccc2ccccc12)C(=O)N[C@H](CCCCN)C(N)=O [XMP.628, k-l-f-r-(naph-a)-q-a-k-(naph-a)-k] (H-[dK][dL][dF][dR][d1Nal][dQ][dA][dK][d1Nal][dK]-NH2) | – | – | 107 | 68 | showed activity | highest antimicrobial activities | –
CC(C)C[C@@H](NC(=O)[C@H](N)CCCCN)C(=O)N[C@H](Cc1ccccc1)C(=O)N[C@H](CCCNC(=N)N)C(=O)N[C@H](Cc1cccc2ccccc12)C(=O)N[C@H](CCC(N)=O)C(=O)N[C@H](C)C(=O)N[C@H](CCCCN)C(=O)N[C@H](Cc1cccc2ccccc12)C(N)=O [XMP.629, k-l-f-r-(naph-a)-q-a-k-(naph-a)] (H-[dK][dL][dF][dR][d1Nal][dQ][dA][dK][d1Nal]-NH2; N-terminus assumed) | – | 30.8 | 69 | 49 | showed activity | highest antimicrobial activities | –
CC(C)C[C@@H](NC(=O)[C@H](N)CCCCN)C(=O)N[C@H](Cc1ccccc1)C(=O)N[C@H](CCCNC(=N)N)C(=O)N[C@H](Cc1cccc2ccccc12)C(=O)N[C@H](CCC(N)=O)C(=O)N[C@H](C)C(=O)N[C@H](CCCCN)C(N)=O [XMP.630, k-l-f-r-(naph-a)-q-a-k] (H-[dK][dL][dF][dR][d1Nal][dQ][dA][dK]-NH2; N-terminus and C-terminus assumed) | >25 | 49.6 | 2.3 | 0.5 | – | – | > 50
